From patent US20240025922A1, “TETRAHYDROPYRIDO[3,4-d]PYRIMIDINES AS HPK1 INHIBITORS” (Merck Patent GmbH, priority 2022, published 2024)

How the values were obtained:
[1] = target: full-length human HPK1 (MAP4K1) (Homo sapiens (Human), UniProt Q92918); assay: HPK1 Kinase Assay (Biochemical Assay), ADP-Glo; settings: GST-HPK1 3.2 nM, 10 μM ATP, MBP substrate, read-out: HPK1 enzymatic IC50
Summary of the method: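 ADP-Glo luminescence after a 120-min kinase reaction gave percent inhibition and IC50. The enzyme was Sf21-expressed N-terminal GST full-length human HPK1 at 3.2 nM in HEPES pH 7.5 buffer with MgCl2, DTT, Brij-35 and BSA.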

[2] = target: HPK1 (SLP76 phosphorylation at Ser376 in Jurkat and EL-4 cells) (Homo sapiens, UniProt Q92918); format: cell-based; settings: αCD3/αCD28 Dynabeads stimulated cells, pSLP76 (Ser376) detection; read-out: HPK1 pSLP76 IC50
Sequence of HPK1 (SLP76 phosphorylation at Ser376 in Jurkat and EL-4 cells) (Q92918 whole entry, looked up): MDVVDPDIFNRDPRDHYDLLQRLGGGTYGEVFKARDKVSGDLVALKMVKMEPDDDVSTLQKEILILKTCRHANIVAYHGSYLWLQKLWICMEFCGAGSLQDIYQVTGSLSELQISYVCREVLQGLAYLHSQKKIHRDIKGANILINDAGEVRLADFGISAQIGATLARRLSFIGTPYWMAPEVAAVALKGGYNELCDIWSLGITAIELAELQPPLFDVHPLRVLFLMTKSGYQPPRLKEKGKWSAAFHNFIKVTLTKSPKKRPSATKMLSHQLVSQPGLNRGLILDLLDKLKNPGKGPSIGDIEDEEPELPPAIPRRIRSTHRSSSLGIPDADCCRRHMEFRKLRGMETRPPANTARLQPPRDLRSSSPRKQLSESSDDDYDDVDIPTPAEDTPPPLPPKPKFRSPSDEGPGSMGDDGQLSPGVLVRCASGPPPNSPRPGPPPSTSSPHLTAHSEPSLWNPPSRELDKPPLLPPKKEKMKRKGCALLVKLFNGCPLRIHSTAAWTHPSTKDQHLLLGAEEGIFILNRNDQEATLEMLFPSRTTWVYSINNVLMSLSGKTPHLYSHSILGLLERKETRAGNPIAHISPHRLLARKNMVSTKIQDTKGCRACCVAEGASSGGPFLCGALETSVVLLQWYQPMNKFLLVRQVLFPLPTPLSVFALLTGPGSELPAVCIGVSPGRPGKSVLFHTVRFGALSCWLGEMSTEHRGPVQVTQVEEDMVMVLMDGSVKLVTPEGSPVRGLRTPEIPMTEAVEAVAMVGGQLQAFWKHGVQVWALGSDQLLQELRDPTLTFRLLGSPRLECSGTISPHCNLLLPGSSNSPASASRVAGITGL
Summary of the method: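 Phospho-SLP76 (Ser376) in lysates measured by AlphaLISA for human Jurkat and by 19 h HTRF for mouse EL-4, giving % inhibition and IC50. Compounds applied 60 min before αCD3/αCD28 bead stimulation at 37 °C, lasting 15 min (Jurkat) or 30 min (EL-4).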

Sequence of full-length human HPK1 (MAP4K1) (Q92918 whole entry): as the sequence (Q92918 whole entry, looked up) above

Q: Which results are given for Cc1c(N2CCc3cnc(Nc4ccc(CN(C)C)cc4)nc3C2)cnc2c1NCCO2 [Example 59, N-{4-[(dimethylamino)methyl]phenyl}-7-{8-methyl-1H,2H,3H-pyrido[2,3-b][1,4]oxazin-7-yl}-5H,6H,7H,8H-pyrido[3,4-d]pyrimidin-2-amine; formic acid]?
A: IC50 [1]: < 100 nM; IC50 [2]: > 1000 nM

Q: What does the source list for Cc1c(N2CCc3cnc(Nc4ccc(CS(C)(=O)=O)nc4)nc3C2)cnc2c1NCCO2 [Example 58, 6-(methanesulfonylmethyl)-N-(7-{8-methyl-1H,2H,3H-pyrido[2,3-b][1,4]oxazin-7-yl}-5H,6H,7H,8H-pyrido[3,4-d]pyrimidin-2-yl)pyridin-3-amine]?
A: IC50 [1]: < 100 nM; IC50 [2]: < 500 nM

Q: Which IC50 [1] does the source give for Cc1c(N2CCc3cnc(Nc4ccc(CS(C)(=O)=O)cc4)cc3C2)cnc2c1NCCO2 [Example 57, N-[4-(methanesulfonylmethyl)phenyl]-6-{8-methyl-1H,2H,3H-pyrido[2,3-b][1,4]oxazin-7-yl}-5,6,7,8-tetrahydro-2,6-naphthyridin-3-amine] here?
A: < 100 nM

Q: And the IC50 [2]?
A: < 500 nM

Q: Which results are given for Cc1c(N2CCc3cnc(Nc4ccc(NC(=O)CN(C)C)nc4)cc3C2)cnc2c1NCCO2 [Example 31, 2-(dimethylamino)-N-{5-[(6-{8-methyl-1H,2H,3H-pyrido[2,3-b][1,4]oxazin-7-yl}-5,6,7,8-tetrahydro-2,6-naphthyridin-3-yl)amino]pyridin-2-yl}acetamide]?
A: IC50 [1]: < 100 nM; IC50 [2]: > 1000 nM

Q: Which results are given for Cc1c(N2CCc3cnc(Nc4ccc([C@@H](C)S(C)(=O)=O)cc4)nc3C2)cnc2c1NCCO2 (single isomer, unassigned) [Example 158]?
A: IC50 [1]: < 100 nM; IC50 [2]: < 500 nM

Q: How did the IC50 [1] turn out when Cc1c(N2CCc3cnc(Nc4ccc(S(C)(=O)=O)cc4)nc3C2)cnc2c1NCCO2 [Example 24, N-(4-methanesulfonylphenyl)-7-{8-methyl-1H,2H,3H-pyrido[2,3-b][1,4]oxazin-7-yl}-5H,6H,7H,8H-pyrido[3,4-d]pyrimidin-2-amine] was run?
A: < 100 nM

Q: And the IC50 [2]?
A: 500 to 1000 nM

Q: For Cc1cc(Nc2cc3c(cn2)CCN(c2cnc4c(c2Cl)NCCO4)C3)ccc1NC(=O)CN1CCC1 [Example 2, 2-(azetidin-1-yl)-N-{4-[(6-{8-chloro-1H,2H,3H-pyrido[2,3-b][1,4]oxazin-7-yl}-5,6,7,8-tetrahydro-2,6-naphthyridin-3-yl)amino]-2-methylphenyl}acetamide], which IC50 [1] is on record?
A: < 100 nM

Q: What about the IC50 [2] of the same compound?
A: < 500 nM

Q: Which results are given for Cc1c(N2CCc3cnc(Nc4cccc(CS(C)(=N)=O)c4)nc3C2)cnc2c1NCCO2 (centres unmarked) [Example 168, imino(methyl)(3-((7-(8-methyl-2,3-dihydro-1H-pyrido[2,3-b][1,4]oxazin-7-yl)-5,6,7,8-tetrahydropyrido[3,4-d]pyrimidin-2-yl)amino)benzyl)-16-sulfanone]?
A: IC50 [1]: < 100 nM; IC50 [2]: < 500 nM

Q: Which results are given for COCCOc1ccc(Nc2ncc3c(n2)CN(c2cnc4c(c2C)NCCO4)CC3)cc1CO [Example 83, (2-(2-methoxyethoxy)-5-((7-(8-methyl-2,3-dihydro-1H-pyrido[2,3-b][1,4]oxazin-7-yl)-5,6,7,8-tetrahydropyrido[3,4-d]pyrimidin-2-yl)amino)phenyl)methanol]?
A: IC50 [1]: < 100 nM; IC50 [2]: 500 to 1000 nM

Q: Which results are given for Cc1c(N2CCc3cnc(Nc4cccc(S(C)(=O)=O)c4)nc3C2)cnc2c1NCCO2 [Example 79, 7-(8-methyl-2,3-dihydro-1H-pyrido[2,3-b][1,4]oxazin-7-yl)-N-(3-(methylsulfonyl)phenyl)-5,6,7,8-tetrahydropyrido[3,4-d]pyrimidin-2-amine]?
A: IC50 [1]: < 100 nM; IC50 [2]: < 500 nM

Q: With COCCN1CCc2cc(Nc3cc4c(cn3)CCN(c3cnc5c(c3C)NCCO5)C4)nn2CC1=O [Example 153, 6-(2-methoxyethyl)-2-[(6-{8-methyl-1H,2H,3H-pyrido[2,3-b][1,4]oxazin-7-yl}-5,6,7,8-tetrahydro-2,6-naphthyridin-3-yl)amino]-4H,5H,6H,7H,8H-pyrazolo[1,5-d][1,4]diazepin-7-one] as the compound, how does the IC50 [1] read?
A: < 100 nM

Q: What about the IC50 [2] of the same compound?
A: < 500 nM

Q: Cc1c(N2CCc3cnc(Nc4ccc(CC(=O)N5CC(F)C5)cc4)nc3C2)cnc2c1NCCO2 [Example 155, 1-(3-fluoroazetidin-1-yl)-2-{4-[(7-{8-methyl-1H,2H,3H-pyrido[2,3-b][1,4]oxazin-7-yl}-5H,6H,7H,8H-pyrido[3,4-d]pyrimidin-2-yl)amino]phenyl}ethan-1-one] was tested. Which IC50 [1] did it give?
A: < 100 nM

Q: And the IC50 [2]?
A: < 500 nM

Q: Which results are given for Cc1c(N2CCc3cnc(Nc4cccc(CS(C)(=O)=O)c4)nc3C2)cnc2c1NCCO2 [Example 50, 7-(8-methyl-2,3-dihydro-1H-pyrido[2,3-b][1,4]oxazin-7-yl)-N-(3-((methylsulfonyl)methyl)phenyl)-5,6,7,8-tetrahydropyrido[3,4-d]pyrimidin-2-amine]?
A: IC50 [1]: < 100 nM; IC50 [2]: < 500 nM

Q: How did the IC50 [1] turn out when Cc1c(N2CCc3cnc(Nc4ccc(Cn5ccnn5)cc4)nc3C2)cnc2c1NCCO2 [Example 183, 7-{8-methyl-1H,2H,3H-pyrido[2,3-b][1,4]oxazin-7-yl}-N-{4-[(1H-1,2,3-triazol-1-yl)methyl]phenyl}-5H,6H,7H,8H-pyrido[3,4-d]pyrimidin-2-amine] was run?
A: < 100 nM

Q: And the IC50 [2]?
A: < 500 nM

Q: Which IC50 [1] does the source give for Cc1c(N2CCc3cnc(Nc4ccc(CC(=O)N5CC(C)(O)C5)cc4)nc3C2)cnc2c1NCCO2 [Example 173, 1-(3-hydroxy-3-methylazetidin-1-yl)-2-{4-[(7-{8-methyl-1H,2H,3H-pyrido[2,3-b][1,4]oxazin-7-yl}-5H,6H,7H,8H-pyrido[3,4-d]pyrimidin-2-yl)amino]phenyl}ethan-1-one] here?
A: < 100 nM

Q: And the IC50 [2]?
A: < 500 nM

Q: Which results are given for Cc1c(N2CCc3cnc(Nc4ccc(CC(=O)N5CC6(COC6)C5)cc4)nc3C2)cnc2c1NCCO2 [Example 164, 2-{4-[(7-{8-methyl-1H,2H,3H-pyrido[2,3-b][1,4]oxazin-7-yl}-5H,6H,7H,8H-pyrido[3,4-d]pyrimidin-2-yl)amino]phenyl}-1-{2-oxa-6-azaspiro[3.3]heptan-6-yl}ethan-1-one]?
A: IC50 [1]: < 100 nM; IC50 [2]: < 500 nM

Q: With Cc1c(N2CCc3cnc(Nc4ccnc(N5CCN(C)CC5)c4)nc3C2)cnc2c1NCCO2 [Example 72, N-(7-{8-methyl-1H,2H,3H-pyrido[2,3-b][1,4]oxazin-7-yl}-5H,6H,7H,8H-pyrido[3,4-d]pyrimidin-2-yl)-2-(4-methylpiperazin-1-yl)pyridin-4-amine] as the compound, how does the IC50 [1] read?
A: < 100 nM

Q: What about the IC50 [2] of the same compound?
A: < 500 nM

Q: How did the IC50 [1] turn out when COCCS(=O)(=O)Cc1ccc(Nc2ncc3c(n2)CN(c2cnc4c(c2C)NCCO4)CC3)cc1 [Example 135, N-{4-[(2-methoxyethanesulfonyl)methyl]phenyl}-7-{8-methyl-1H,2H,3H-pyrido[2,3-b][1,4]oxazin-7-yl}-5H,6H,7H,8H-pyrido[3,4-d]pyrimidin-2-amine] was run?
A: < 100 nM

Q: And the IC50 [2]?
A: < 500 nM

Q: With Cc1c(N2CCc3cnc(Nc4ccc(CS(C)(=O)=O)nc4)cc3C2)cnc2c1NCCO2 [Example 51, 6-(8-methyl-2,3-dihydro-1H-pyrido[2,3-b][1,4]oxazin-7-yl)-N-(6-((methylsulfonyl)methyl)pyridin-3-yl)-5,6,7,8-tetrahydro-2,6-naphthyridin-3-amine] as the compound, how does the IC50 [1] read?
A: < 100 nM

Q: And the IC50 [2]?
A: 500 to 1000 nM

Q: What does the source list for Cc1c(N2CCc3cnc(Nc4ccc5c(c4)CS(=O)(=O)C5)nc3C2)cnc2c1NCCO2 [Example 81, 5-((7-(8-methyl-2,3-dihydro-1H-pyrido[2,3-b][1,4]oxazin-7-yl)-5,6,7,8-tetrahydropyrido[3,4-d]pyrimidin-2-yl)amino)-1,3-dihydrobenzo[c]thiophene 2,2-dioxide]?
A: IC50 [1]: < 100 nM; IC50 [2]: < 500 nM

Q: Cc1c(N2CCc3cnc(Nc4ccc(C5(O)CCN(C)CC5)cc4)cc3C2)cnc2c1NCCO2 [Example 52, 1-methyl-4-(4-((6-(8-methyl-2,3-dihydro-1H-pyrido[2,3-b][1,4]oxazin-7-yl)-5,6,7,8-tetrahydro-2,6-naphthyridin-3-yl)amino)phenyl)piperidin-4-ol] was tested. Which IC50 [1] did it give?
A: < 100 nM

Q: What about the IC50 [2] of the same compound?
A: 500 to 1000 nM

Q: What does the source list for Cc1c(N2CCc3cnc(Nc4ccc(CC(=O)N5CC(F)(F)C5)cc4)nc3C2)cnc2c1NCCO2 [Example 151, 1-(3,3-difluoroazetidin-1-yl)-2-{4-[(7-{8-methyl-1H,2H,3H-pyrido[2,3-b][1,4]oxazin-7-yl}-5H,6H,7H,8H-pyrido[3,4-d]pyrimidin-2-yl)amino]phenyl}ethan-1-one]?
A: IC50 [1]: < 100 nM; IC50 [2]: < 500 nM
